Format in all cases: functional
Experiment [1] concerns NCI-H520. Kind of experiment: Cytotoxicity against human NCI-H520 cells assessed as cell survival at 10 uM relative to control. Particulars: read-out: Activity.
For experiment [2], the system named is NCI-H520. As to the kind of experiment: Cytotoxicity against human NCI-H520 cells assessed as cell survival at 50 uM relative to control. Particulars: read-out: Activity.
Experiment [3] deals with NCI-H520. Kind of experiment: Cytotoxicity against human NCI-H520 cells assessed as cell survival at 100 uM relative to control. The settings on record: read-out: Activity.
Experiment [4] concerns PC-3. Kind of experiment: Cytotoxicity against human PC3 cells assessed as cell survival at 10 uM relative to control. The settings on record: read-out: Activity.
Experiment [5] concerns PC-3. Kind of experiment: Cytotoxicity against human PC3 cells assessed as cell survival at 50 uM relative to control. The settings on record: read-out: Activity.
For experiment [6], the system named is PC-3. Kind of experiment: Cytotoxicity against human PC3 cells assessed as cell survival at 100 uM relative to control. Particulars: read-out: Activity.
The test system of experiment [7] is NCI-H520. As to the kind of experiment: Growth inhibition of human NCI-H520 cells.
Experiment [8] relates to PC-3. As to the kind of experiment: Growth inhibition of human PC3 cells.

Where only a bound is given, the exact number is not on record here.

Take `COc1cc([C@H]2c3[nH]c4ccccc4c3C[C@@H]3C(=O)N4[C@@H](c5cc(OC)c(OC)c(OC)c5)c5[nH]c6ccccc6c5C[C@@H]4C(=O)N23)cc(OC)c1OC`: the viability at 10 µM was 99.8% in the experiment on NCI-H520 [1] and more than 100% in the experiment on PC-3 [4]. Further, the viability at 50 µM in the experiment on NCI-H520 [2] was 98.9%; in the experiment on PC-3 [5], more than 100%. Further, the viability at 100 µM in the experiment on NCI-H520 [3] was found to be 98.9%; with PC-3 [6], 77.4%.
As to `COc1cc([C@@H]2c3cc4c(cc3[C@@H](O[C@@H]3O[C@@H]5CO[C@@H](C)O[C@H]5[C@H](O)[C@H]3O)[C@H]3COC(=O)[C@H]23)OCO4)cc(OC)c1O` [ETOPOSIDE], the results for the GI50 in the experiment on NCI-H520 [7] and with PC-3 [8] were 13.5 µM and 12.5 µM, respectively. The viability at 10 µM was 78.6% with NCI-H520 [1] and 73.8% in the experiment with PC-3 [4]. Further, the viability at 50 µM in the experiment on NCI-H520 [2] was 35.2%; in the experiment with PC-3 [5], 41.2%. For the same compound, the viability at 100 µM in the experiment with NCI-H520 [3] turned out to be 21.3%; in the experiment on PC-3 [6], 30.8%.
The compound `CC(C)=CCc1[nH]c2ccccc2c1C[C@@H]1NC(=O)[C@H]2CCCN2C1=O` showed a GI50 in the experiment on PC-3 [8] of 12.3 µM. This counts as double-digit micromolar.
For the compound `COc1cc([C@@H]2c3[nH]c4ccccc4c3C[C@H]3C(=O)N4[C@H](c5cc(OC)c(O)c(OC)c5)c5[nH]c6ccccc6c5C[C@H]4C(=O)N23)cc(OC)c1O`, the GI50 with NCI-H520 [7] amounted to 21.5 µM; in the experiment with PC-3 [8], 21.9 µM. Further, the figures for the viability at 10 µM with NCI-H520 [1] and in the experiment with PC-3 [4] were 67.3% and 80.7%, respectively. The values for the viability at 50 µM with NCI-H520 [2] and in the experiment with PC-3 [5] were 16.5% and 3.3%, respectively. In addition, the viability at 100 µM in the experiment with NCI-H520 [3] is 5.8%; in the experiment on PC-3 [6], 1.6%.
Take `COc1cc([C@H]2c3[nH]c4ccccc4c3C[C@@H]3C(=O)N4[C@@H](c5cc(OC)c(OCc6ccccc6)c(OC)c5)c5[nH]c6ccccc6c5C[C@@H]4C(=O)N23)cc(OC)c1OCc1ccccc1`: the viability at 10 µM with NCI-H520 [1] and with PC-3 [4] was more than 100% in each case. For the same compound, the viability at 50 µM in the experiment on NCI-H520 [2] was more than 100%; with PC-3 [5], 92.7%. The viability at 100 µM in the experiment on NCI-H520 [3] is 84.5%; with PC-3 [6] it was 65.1%.
Consider `COc1cc([C@H]2c3[nH]c4ccccc4c3C[C@@H]3C(=O)N4[C@@H](c5cc(OC)c(O)c(OC)c5)c5[nH]c6ccccc6c5C[C@@H]4C(=O)N23)cc(OC)c1O`, for which the GI50 in the experiment with NCI-H520 [7] stood at 61.5 µM; with PC-3 [8], 55.3 µM. Further, the viability at 10 µM with NCI-H520 [1] is 88.7%; in the experiment with PC-3 [4], more than 100%. For the same compound, the viability at 50 µM came to 53.2% in the experiment with NCI-H520 [2] and 43.6% in the experiment with PC-3 [5]. For the same compound, the viability at 100 µM in the experiment with NCI-H520 [3] worked out at 26.8%; with PC-3 [6] it was 15.7%.
Turning to `COc1cc([C@@H]2c3[nH]c4ccccc4c3C[C@H]3C(=O)N4[C@H](c5cc(OC)c(OC)c(OC)c5)c5[nH]c6ccccc6c5C[C@H]4C(=O)N23)cc(OC)c1OC`, the viability at 10 µM in the experiment on NCI-H520 [1] amounted to 90.3%; with PC-3 [4], 93%. Moreover, the figures for the viability at 50 µM in the experiment with NCI-H520 [2] and in the experiment with PC-3 [5] were 90.8% and 80.5%, respectively. In addition, the viability at 100 µM was 86.7% in the experiment on NCI-H520 [3] and 65% in the experiment with PC-3 [6].
Take `COc1cc([C@@H]2c3[nH]c4ccccc4c3C[C@H]3C(=O)N4[C@H](c5cc(OC)c(OCc6ccccc6)c(OC)c5)c5[nH]c6ccccc6c5C[C@H]4C(=O)N23)cc(OC)c1OCc1ccccc1`: the viability at 10 µM stood at 88.1% in the experiment with NCI-H520 [1] and 98.2% in the experiment on PC-3 [4]. Further, the viability at 50 µM in the experiment with NCI-H520 [2] was 81.3%; with PC-3 [5] it was 68.8%. Further, the viability at 100 µM is 81% with NCI-H520 [3] and 54.5% in the experiment with PC-3 [6].

A word on the GI50: it is the concentration that inhibits growth by half. Read a low GI50 as more potent growth inhibition.

Values taken from ChEMBL document CHEMBL1145580, “Synthesis of diketopiperazine-based carboline homodimers and in vitro growth inhibition of human carcinomas” (2008).
